Values of other authors as cited in article PMC2749889 (Journal of neurochemistry, 2009).

Legend:
α9 homomers = settings: read-out: IC50, α9 homomers; ref Verbitsky et al. 2000
α6 ^* = settings: ref Klink et al. 2001; Mogg et al. 2002

In the case of `CCN1C[C@]2(COC(=O)c3ccccc3N3C(=O)C[C@H](C)C3=O)CC[C@H](OC)[C@@]34[C@@H]5C[C@H]6[C@H](OC)[C@@H]5[C@](O)(C[C@@H]6OC)[C@@](O)([C@@H](OC)[C@H]23)[C@@H]14` [MLA, Methyllycaconitine], the IC50 (α9 homomers) is given as 1.1 nM and the “block of α6 ^*” value (α6 ^*) is given as “blocks”.
